Laboratory results reported in PubChem BioAssay (NCI).
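96-well plates; 48 h exposure; 5 concentrations. Endpoints by linear interpolation between flanking doses. Not reached: highest tested concentration assigned. At the GI50, growth is halved. TGI: total growth inhibition.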

Columns and labels:
Experiment in all cases: NCI tumour cell line growth inhibition, 48 h
[1] = test system: SF-268 CNS
[2] = test system: NCI-H226 lung
[3] = test system: SF-539 CNS
[4] = test system: SNB-19 CNS
[5] = test system: MALME-3M melanoma
[6] = test system: MDA-MB-435
[7] = test system: NCI-H23 lung
[8] = test system: HS 578T breast
[9] = test system: NCI/ADR-RES ovarian
[10] = test system: LOX IMVI melanoma

Row | Structure (SMILES) | GI50 [1] | TGI [1] | GI50 [2] | TGI [2] | GI50 [3] | TGI [3] | GI50 [4] | TGI [4] | GI50 [5] | TGI [5] | GI50 [6] | TGI [6] | GI50 [7] | TGI [7] | GI50 [8] | TGI [8] | GI50 [9] | TGI [9] | TGI [10] | GI50 [10]
1 | Nc1ccccc1NC(=O)c1ccc(CNc2nccc(-c3cccnc3)n2)cc1 | 0.995 µM | > 21.4 µM | 1.79 µM | 23.6 µM | 0.805 µM | 13.1 µM | 3.49 µM | > 100 µM | 0.57 µM | > 21.7 µM | 0.299 µM | 1.25 µM | 1.4 µM | > 68.1 µM | 1.06 µM | > 100 µM | 0.803 µM | > 22.9 µM | – | –
2 | C=CC(=O)NCCSCCCOC1(C(=O)O)CC(O)C(NC(C)=O)C(C(O)C(O)CO)O1 (centres undefined) | – | – | – | > 100 µM | – | > 100 µM | – | > 100 µM | – | > 100 µM | – | – | – | > 100 µM | – | – | – | – | > 100 µM | –
3 | CC1=Nc2ccccc2NC(c2ccoc2)C1 (centres undefined) | – | > 100 µM | – | > 100 µM | – | > 100 µM | – | > 100 µM | – | > 100 µM | – | – | – | > 100 µM | – | – | – | – | > 100 µM | –
4 | c1ccc([CH2][Sn]([CH2]c2ccccc2)([O]c2cccc3cccnc23)[O]c2cccc3cccnc23)cc1 | 1.2 µM | 7.04 µM | 1.38 µM | 2.85 µM | 0.248 µM | 0.677 µM | 1.15 µM | 2.49 µM | 0.266 µM | 0.689 µM | – | – | 0.508 µM | 1.84 µM | – | – | – | – | 1.65 µM | 0.53 µM
5 | Cc1cc([N+](=O)[O-])ccc1NC(=O)C(=O)C(C(=O)c1ccccc1-c1ccccc1)C1OC(=O)c2ccccc21 (centres undefined) | – | 58.1 µM | – | 28.5 µM | – | 21.7 µM | – | 12.3 µM | – | 29.9 µM | – | – | – | 80 µM | – | – | – | – | – | –
6 | C[C@]12CC[C@@H]3c4cc(OC(F)F)c(O)cc4CC[C@H]3[C@@H]1CC[C@@H]2OS(N)(=O)=O | 3.15 µM | > 100 µM | 6.64 µM | 60.5 µM | 0.455 µM | 14.4 µM | 0.551 µM | > 100 µM | 0.348 µM | 27.4 µM | – | – | 1.46 µM | 50.8 µM | 0.475 µM | 48.8 µM | 0.484 µM | 25.3 µM | 22.6 µM | 0.585 µM
7 | O=C(C=C1SCCS1)/C=C\c1ccc(Cl)cc1 | – | > 100 µM | – | > 100 µM | – | > 100 µM | – | > 100 µM | – | > 100 µM | – | – | – | > 100 µM | – | – | – | – | > 100 µM | –
8 | CCC(CC)c1nc(Nc2ccc(C(=O)OC)cc2)c2ccccc2n1 | 6.69 µM | 19.1 µM | 7.93 µM | 22.8 µM | > 20.5 µM | > 28.6 µM | 8.07 µM | 15.2 µM | – | – | > 18.3 µM | > 25.6 µM | 15.5 µM | > 37.4 µM | 10.9 µM | 26.5 µM | 24.3 µM | > 34.7 µM | 31.7 µM | 11.1 µM
